Assay results from article PMC12691742, “Anti-Cancer Outcome of Glucocorticoid Receptor Transrepression by Synephrine Derivatives in Hematological Malignancies” (International Journal of Molecular Sciences, 2025).

Test system: NF-kB activity in K562 and Granta cells
Assay: NF-kB.Luc reporter assay, positive control
Format: cell-based
Details: TPA 5 ng/mL or 10 ng/mL (method), 5 h
Procedure: We analyzed GR TR function using an NF-kB.Luc reporter assay with the irritating inflammatory agent phorbol 13-acetate 12-myristate (TPA) as an inducer of NF-kB signaling and positive control.
Figure 4 Effects of synephrine derivatives on GR transrepression in Granta lymphoma and K562 leukemia cells. (A) K562 and Granta cells stably infected with the lentiviruses bearing the NF-kB luciferase reporter. Cells were incubated for 5 h with the solvent (control), TPA (5 ng/mL), 4S-C2 (10 µM), 8S-E3 (10 µM), 10S-E2 (1 µM), or 13S-G2 (1 µM). Luciferase activity was determined as described in the Materials and Methods section. (B) IL1-α and IL6 mRNA expression in K562 and Granta cells. […] The mean ± SD was calculated for three individual samples/condition (n = 3). […]
Lentiviral stocks were generated using the lentiviral expression vector NF-kB. […] The infection efficiency exceeded 90% (tracked by GFP fluorescence).
Cells (10^4 cells/well in a 24-well plate), stably expressing Firefly Luciferase under the NF-kB promoter, were treated for 5 h with TPA (12-O-tetradecanoylphorbol-13-acetate, Boston, MA, USA, 10 ng/mL), 4S-C2 (10 µM), 8S-E3 (10 µM), 10S-E2 (1 µM), 13S-G2 (1 µM), or the vehicle. Luciferase activity was measured as described using a commercial Luciferase Assay (“Promega”, Madison, WI, USA) and Luminometer TD 20/20 (“Turner Design Instruments”, San Jose, CA, USA). […]

For `CCCCCCCCCCCCCC(=O)O[C@@H]1[C@@H](C)[C@@]2(O)[C@@H](C=C(CO)C[C@]3(O)C(=O)C(C)=C[C@@H]23)[C@@H]2C(C)(C)[C@]12OC(C)=O` [TPA, 12-O-tetradecanoylphorbol-13-acetate], the NF-kB activation was 5-9 fold.
